Measurements taken from patent US8178535B2, “Substituted sulfonamide compounds having bradykinin 1 receptor activity and use thereof as medicaments” (Gruenenthal GmbH, priority 2008, dated 2012).

Assays:
[1] = molecular target: T1, human B1R receptor (hB1R) (Homo sapiens, UniProt P46663); assay: FLIPR Ca2+ assay (Fluo-4) on CHO K1 cells stably transfected with the human B1R gene; assay type: cell-based; details: CHO-K1; test substance 10 μM; agonist Lys-Des-Arg9-bradykinin 0.5 nM; % inhibition compared to the maximum achievable inhibition
T1 construct: host or cells: CHO K1 cells
T1 sequence (P46663 1-353): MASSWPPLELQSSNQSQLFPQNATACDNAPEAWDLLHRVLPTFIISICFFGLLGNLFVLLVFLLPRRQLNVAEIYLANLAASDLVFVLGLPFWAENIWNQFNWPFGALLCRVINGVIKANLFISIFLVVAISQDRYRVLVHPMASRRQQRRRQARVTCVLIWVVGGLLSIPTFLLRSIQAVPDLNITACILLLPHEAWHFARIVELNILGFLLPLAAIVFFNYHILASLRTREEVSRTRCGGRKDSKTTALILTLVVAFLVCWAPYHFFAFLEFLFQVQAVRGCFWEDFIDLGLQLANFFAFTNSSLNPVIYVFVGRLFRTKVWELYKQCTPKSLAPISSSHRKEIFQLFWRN
In short: (§1)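 CHO K1 cells stably expressing human or rat B1R, Fluo-4 loaded, read by FLIPR (Ex 488/Em 540, peak fluorescence). Compound at 10 μM gives % activation vs agonist. After 10 min, agonist added (human: Lys-Des-Arg9-bradykinin 0.5 nM; rat: Des-Arg9-bradykinin 100 nM); % inhibition relative to maximal achievable inhibition.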

[2] = molecular target: T2, B1R receptor of rats (rB1R) (Rattus norvegicus, UniProt P97583); assay: FLIPR Ca2+ assay (Fluo-4) on CHO K1 cells stably transfected with the B1R gene of rats; assay type: cell-based; details: CHO-K1; test substance 10 μM; agonist Des-Arg9-bradykinin 100 nM; % inhibition compared to the maximum achievable inhibition
T2 construct: host or cells: CHO K1 cells
T2 sequence (P97583 1-337): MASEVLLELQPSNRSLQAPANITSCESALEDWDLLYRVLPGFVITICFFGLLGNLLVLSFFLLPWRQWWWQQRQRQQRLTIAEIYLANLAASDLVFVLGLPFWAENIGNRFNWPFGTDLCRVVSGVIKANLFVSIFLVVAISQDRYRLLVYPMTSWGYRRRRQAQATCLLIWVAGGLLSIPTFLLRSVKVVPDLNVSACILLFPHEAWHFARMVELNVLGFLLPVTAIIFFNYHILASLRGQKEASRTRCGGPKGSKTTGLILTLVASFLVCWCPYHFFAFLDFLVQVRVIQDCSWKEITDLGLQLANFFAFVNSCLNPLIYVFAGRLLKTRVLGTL
In short: as §1

SMILES | inhibition at 10 µM [1] [%] | inhibition at 10 µM [2] [%]
CCCCC1c2ccc(CN(C)C)n2CCN1C(=O)COCC1CCCCN1S(=O)(=O)c1c(C)cc(OC)cc1C (stereo not shown) [(67), 1-(1-butyl-6-((dimethylamino)methyl)-3,4-dihydropyrrolo[1,2-a]pyrazin-2(1H)-yl)-2-((1-(4-methoxy-2,6-dimethylphenylsulfonyl)piperidin-2-yl)methoxy)ethanone] | 102 | 100
COc1cc(C)c(S(=O)(=O)N2CCCCC2COCC(=O)N2CCn3c(CN(C)C)ccc3C2c2cccs2)c(C)c1 (stereo not shown) [(68), 1-(6-((dimethylamino)methyl)-1-(thiophen-2-yl)-3,4-dihydropyrrolo[1,2-a]pyrazin-2(1H)-yl)-2-((1-(4-methoxy-2,6-dimethylphenylsulfonyl)piperidin-2-yl)methoxy)ethanone] | 102 | 103
CCC1c2ccc(CN(C)C)n2CCN1C(=O)COCC1CCCCN1S(=O)(=O)c1c(C)cc(OC)cc1C (stereo not shown) [(69), 1-(6-((dimethylamino)methyl)-1-ethyl-3,4-dihydropyrrolo[1,2-a]pyrazin-2(1H)-yl)-2-((1-(4-methoxy-2,6-dimethylphenylsulfonyl)piperidin-2-yl)methoxy)ethanone] | 104 | 102
CCC1c2cccn2CCN1C(=O)COCC1CCCCN1S(=O)(=O)c1c(C)cc(OC)cc1C (stereo not shown) [(70), 1-(1-ethyl-3,4-dihydropyrrolo[1,2-a]pyrazin-2(1H)-yl)-2-((1-(4-methoxy-2,6-dimethylphenylsulfonyl)piperidin-2-yl)methoxy)ethanone] | 102 | 103
COc1cc(C)c(S(=O)(=O)N2CCCCC2COCC(=O)N2CCn3cccc3C2C(C)C)c(C)c1 (stereo not shown) [(72), 1-(1-isopropyl-3,4-dihydropyrrolo[1,2-a]pyrazin-2(1H)-yl)-2-((1-(4-methoxy-2,6-dimethylphenylsulfonyl)piperidin-2-yl)methoxy)ethanone] | 102 | 102
COc1cc(C)c(S(=O)(=O)N2CCCCC2COCC(=O)N2CCn3ncnc3C2)c(C)c1 (stereo not shown) [(73), 1-(5,6-dihydro-[1,2,4]triazolo[1,5-a]pyrazin-7(8H)-yl)-2-((1-(4-methoxy-2,6-dimethylphenylsulfonyl)piperidin-2-yl)methoxy)ethanone] | 36 | 102
CCC1c2cccn2CCN1C(=O)CCC1CCCCN1S(=O)(=O)c1c(C)cc(OC)cc1C (stereo not shown) [(85), 1-(1-ethyl-3,4-dihydropyrrolo[1,2-a]pyrazin-2(1H)-yl)-3-(1-(4-methoxy-2,6-dimethylphenylsulfonyl)piperidin-2-yl)propan-1-one] | 95 | 98
CCC1c2cccn2CCN1C(=O)COC[C@@H]1CCCCN1S(=O)(=O)c1c(C)cc(OC)cc1C (stereo partly drawn) [(86), 1-(1-ethyl-3,4-dihydropyrrolo[1,2-a]pyrazin-2(1H)-yl)-2-(((S)-1-(4-methoxy-2,6-dimethylphenylsulfonyl)piperidin-2-yl)methoxy)ethanone] | 99 | 99
O=C(CC1CCCCN1S(=O)(=O)c1cccc(C(F)(F)F)c1)N1CCn2c(Cc3ccncc3)ccc2C1 (stereo not shown) [(90), 1-(6-(Pyridin-4-ylmethyl)-3,4-dihydropyrrolo[1,2-a]pyrazin-2(1H)-yl)-2-(1-(3-(trifluoromethyl)phenylsulfonyl)piperidin-2-yl)ethanone] | 25 | 47
COc1cc(C)c(S(=O)(=O)N2CCCCC2CCCC(=O)N2CCn3c(Cc4ccncc4)ccc3C2)c(C)c1 (stereo not shown) [(91), 4-(1-(4-Methoxy-2,6-dimethylphenylsulfonyl)piperidin-2-yl)-1-(6-(pyridin-4-ylmethyl)-3,4-dihydropyrrolo[1,2-a]pyrazin-2(1H)-yl)butan-1-one] | 95 | 100
COc1cc(C)c(S(=O)(=O)N2CCCCC2CCCC(=O)N2CCn3c(ccc3-c3cccnc3)C2)c(C)c1 (stereo not shown) [(92), 4-(1-(4-Methoxy-2,6-dimethylphenylsulfonyl)piperidin-2-yl)-1-(6-(pyridin-3-yl)-3,4-dihydropyrrolo[1,2-a]pyrazin-2(1H)-yl)butan-1-one] | 91 | 99
O=C(CC1CCCCN1S(=O)(=O)c1cccc(C(F)(F)F)c1)N1CCn2c(ccc2-c2cccnc2)C1 (stereo not shown) [(93), 1-(6-(Pyridin-3-yl)-3,4-dihydropyrrolo[1,2-a]pyrazin-2(1H)-yl)-2-(1-(3-(trifluoromethyl)phenylsulfonyl)piperidin-2-yl)ethanone] | 18 | 55
COc1cc(C)c(S(=O)(=O)N2CCCCC2COCC(=O)N2CCn3c(ccc3-c3ccncc3)C2)c(C)c1 (stereo not shown) [(95), 2-((1-(4-Methoxy-2,6-dimethylphenylsulfonyl)piperidin-2-yl)methoxy)-1-(6-(pyridin-4-yl)-3,4-dihydropyrrolo[1,2-a]pyrazin-2(1H)-yl)ethanone] | 99 | 97
COc1cc(C)c(S(=O)(=O)N2CCCCC2CCC(=O)N2CCn3c(ccc3-c3ccncc3)C2)c(C)c1 (stereo not shown) [(96), 3-(1-(4-Methoxy-2,6-dimethylphenylsulfonyl)piperidin-2-yl)-1-(6-(pyridin-4-yl)-3,4-dihydropyrrolo[1,2-a]pyrazin-2(1H)-yl)propan-1-one] | 61 | 96
O=C(CC1CCCCN1S(=O)(=O)c1cccc(C(F)(F)F)c1)N1CCn2c(Cc3cccnc3)ccc2C1 (stereo not shown) [(97), 1-(6-(Pyridin-3-ylmethyl)-3,4-dihydropyrrolo[1,2-a]pyrazin-2(1H)-yl)-2-(1-(3-(trifluoromethyl)phenylsulfonyl)piperidin-2-yl)ethanone] | 80 | 103

Further lines, results first:

inhibition at 10 µM [1] [%] | inhibition at 10 µM [2] [%] | SMILES
103 | 102 | CCCC1c2cccn2CCN1C(=O)COCC1CCCCN1S(=O)(=O)c1c(C)cc(OC)cc1C (stereo not shown) [(71), 2-((1-(4-methoxy-2,6-dimethylphenylsulfonyl)piperidin-2-yl)methoxy)-1-(1-propyl-3,4-dihydropyrrolo[1,2-a]pyrazin-2(1H)-yl)ethanone]
99 | 100 | COc1cc(C)c(S(=O)(=O)N2CCCCC2COCC(=O)N2CCn3c(Cc4ccncc4)ccc3C2)c(C)c1 (stereo not shown) [(88), 2-((1-(4-Methoxy-2,6-dimethylphenylsulfonyl)piperidin-2-yl)methoxy)-1-(6-(pyridin-4-ylmethyl)-3,4-dihydropyrrolo[1,2-a]pyrazin-2(1H)-yl)ethanone]
99 | 96 | COc1cc(C)c(S(=O)(=O)N2CCCCC2COCC(=O)N2CCn3c(ccc3-c3cccnc3)C2)c(C)c1 (stereo not shown) [(89), 2-((1-(4-Methoxy-2,6-dimethylphenylsulfonyl)piperidin-2-yl)methoxy)-1-(6-(pyridin-3-yl)-3,4-dihydropyrrolo[1,2-a]pyrazin-2(1H)-yl)ethanone]
45 | 99 | COc1cc(C)c(S(=O)(=O)N2CCCCC2CCC(=O)N2CCn3c(ccc3-c3cccnc3)C2)c(C)c1 (stereo not shown) [(94), 3-(1-(4-Methoxy-2,6-dimethylphenylsulfonyl)piperidin-2-yl)-1-(6-(pyridin-3-yl)-3,4-dihydropyrrolo[1,2-a]pyrazin-2(1H)-yl)propan-1-one]
90 | 90 | O=C(CC1CCCCN1S(=O)(=O)c1cccc(C(F)(F)F)c1)N1CCn2c(CCc3cccnc3)ccc2C1 (stereo not shown) [(98), 1-(6-(2-(Pyridin-3-yl)ethyl)-3,4-dihydropyrrolo[1,2-a]pyrazin-2(1H)-yl)-2-(1-(3-(trifluoromethyl)phenylsulfonyl)piperidin-2-yl)ethanone]
72 | 102 | COc1cc(C)c(S(=O)(=O)N2CCCCC2CCC(=O)N2CCn3c(Cc4ccncc4)ccc3C2)c(C)c1 (stereo not shown) [(99), 3-(1-(4-Methoxy-2,6-dimethylphenylsulfonyl)piperidin-2-yl)-1-(6-(pyridin-4-ylmethyl)-3,4-dihydropyrrolo[1,2-a]pyrazin-2(1H)-yl)propan-1-one]
85 | 101 | COc1cc(C)c(S(=O)(=O)N2CCCCC2CCCC(=O)N2CCn3cc(-c4ccncc4)nc3C2)c(C)c1 (stereo not shown) [(100), 4-(1-(4-Methoxy-2,6-dimethylphenylsulfonyl)piperidin-2-yl)-1-(2-(pyridin-4-yl)-5,6-dihydroimidazo[1,2-a]pyrazin-7(8H)-yl)butan-1-one]
100 | 98 | COc1cc(C)c(S(=O)(=O)N2CCCCC2COCC(=O)N2CCn3c(CCc4cccnc4)ccc3C2)c(C)c1 (stereo not shown) [(101), 2-((1-(4-Methoxy-2,6-dimethylphenylsulfonyl)piperidin-2-yl)methoxy)-1-(6-(2-(pyridin-3-yl)ethyl)-3,4-dihydropyrrolo[1,2-a]pyrazin-2(1H)-yl)ethanone]
